Assay results from US20220306653A1, “MACROCYCLIC INHIBITORS OF MCL-1” (Janssen Pharmaceutica NV, priority 2019, published 2022).
Several values for one entry are separate records, joined by “and”; a condition that tells them apart may be missing. Equal entries are not always repeated. Where two headings read alike, the source gives them in different places.

Legend:
MOLP8 cells = experiment: MOLP8 CellEvent Caspase-3/7 Green apoptosis activation assay (IncuCyte live-cell kinetic readout); format: cell-based; details: each independent run listed
Experimental: (§1) MCL-1 is a regulator of apoptosis and is highly over-expressed in tumor cells that escape cell death. The assay evaluates the cellular potency of small-molecule compounds targeting regulators of the apoptosis pathway, primarily MCL-1, Bfl-1, Bcl-2, and other proteins of the Bcl-2 family. Protein-protein inhibitors disrupting the interaction of anti-apoptotic regulators with BH3-domain proteins initiate apoptosis.
Activation of the apoptotic pathway was measured using the CellEvent™ Caspase-3/7 Green ReadyProbes™ Reagent (Thermo Fisher C10423, C10723). This assay produces a green fluorescent stain in cells that enter the apoptosis pathway. CellEvent® Caspase-3/7 Green reagent is a four amino acid peptide (DEVD) conjugated to a nucleic acid-binding dye that is non-fluorescent when not bound to DNA. The CellEvent® Caspase-3/7 Green reagent is intrinsically non-fluorescent, as the DEVD peptide inhibits binding of the dye to DNA. Upon activation of caspase-3/7 in apoptotic cells, the DEVD peptide is cleaved and the free dye can bind DNA, generating a bright green fluorescence. The activation of Caspase-3 and Caspase-7 is downstream of inhibition of MCL-1 or other apoptosis inhibiting proteins in cell lines that are dependent on them.
The live-cell readout on the IncuCyte permits tracking over time of the Caspase activation. […] The IncuCyte readout also allows one to normalize for cell number, as the suspension cells are hard to distribute evenly.
Signals were measured every 2 h for a duration of 22 h. The ratio of the Caspase mask to the Confluence mask, per image, as raw data, was calculated and the kinetic trace for every well was exported to Genedata Screener for analysis.
In Genedata Screener values for 6 h, 12 h, and 22 h from the kinetic traces were extracted. The values were normalized against negative controls (untreated cells). A standard dose-response analysis was performed on the normalized data.
The following data was reported at each of the following three aforementioned time points: (a) The dose-response curve, (b) The qAC50 and qAC50 Mode, and (c) Max Activity.
Cells were maintained in culture medium containing 10% Heat Inactivated (HI) FBS, 2 mM L-Glutamine and 50 µg/mL Gentamycin phenol red free RPMI-1640. Cells were split at 0.4 million/mL twice a week.
On Day 1, plates containing individual wells with test compounds at 10 mM concentration, 150 nL per well. The final concentrations range from […] compound (and no compound control) and compounds were thawed at room temperature for 1 hour. 25 μl of prewarmed medium was added into each well by multidrop (column 1, 3-22, 24), followed by addition of DMSO control (0.6% DMSO) in column 2. The plate was sealed using Breathe-Easy® sealing membrane and shaken for 30 min at room temperature to dissolve the test compound(s) in medium. The plate was then kept in the incubator for 1 hour at 37° C., 5% CO2.
MOLP8 cells in medium at […] (20000/50 μl final in assay) were prepared with CellEvent™ Caspase-3/7 Green Detection Reagent at 4 μM (2 μM final in assay). Once prepared, the cells were added to the test compound plate in an amount of 20000 and the plate was immediately placed in the IncuCyte and imaging started using following settings: 10× objective, 2 s exposure time in green channel, interval of 2 h, acquisition stopped after 22 h.
For analysis in IncuCyte, a Basic Analysis protocol was defined to calculate the “confluence” and “caspase” areas from the “Phase” and “green” images, respectively, as follows: (a) Confluence: Segmentation Adjustment 1, Hole Fill 0, Adjust Size −2, No filters (b) Caspase: Top-Hat segmentation, Radius 10, Threshold 0.3 GCU, Edge Split On with sensitivity 0, Hole Fill 0, Adjust Size 1, and filter on a minimum Area of 20 μm^2. The analyzer is trained on a sufficient number of positive and negative control wells, as well as compound treated wells, verifying that the “confluence” layer detects both live and dead (condensed) cells. […]

[1] = tested on: MOLP-8 human multiple myeloma cell line; experiment: MOLP8 Caspase-Glo 3/7 luminescent assay; format: cell-based; details: 2 hours incubation, averaged values over all runs on all batches
Source text: as §1
The Caspase-Glo® 3/7 Assay is a luminescent assay that measures caspase-3 and -7 activities in purified enzyme preparations or cultures of adherent or suspension cells. The assay provides a proluminescent caspase-3/7 substrate, which contains the tetrapeptide sequence DEVD. This substrate is cleaved to release aminoluciferin, a substrate of luciferase used in the production of light. Addition of the single Caspase-Glo® 3/7 Reagent in an “add-mix-measure” format results in cell lysis, followed by caspase cleavage of the substrate and generation of a “glow-type” luminescent signal.
This assay uses the MOLP-8 human multiple myeloma cell line, which is sensitive to MCL-1 inhibition.
Cell cultures were maintained between 0.2 and 2.0×10^6 cells/mL. The cells were harvested by collection in 50 mL conical tubes. The cells were then pelleted at 500 g for 5 mins before removing supernatant and resuspension in fresh pre-warmed culture medium. The cells were counted and diluted as needed.
The assay reagent was prepared by transferring the buffer solution to the substrate vial and mixing. The solution may be stored for up to 1 week at 4° C. with negligible loss of signal.
Compounds were delivered in assay-ready plates (Proxiplate) and stored at −20° C.
Assays always include 1 reference compound plate containing reference compounds. The plates were spotted with 40 nL of compounds (0.5% DMSO final in cells; serial dilution; 30 μM highest conc. ⅓ dilution, 10 doses, duplicates). The compounds were used at room temperature and 4 μL of pre-warmed media was added to all wells except column 2 and 23. The negative control was prepared by adding 1% DMSO in media. The positive control was prepared by adding the appropriate positive control compound in final concentration of 60 μM in media. The plate was prepared by adding 4 μL negative control to column 23, 4 μL positive control to column 2 and 4 μL cell suspension to all wells in the plate. The plate with cells was then incubated at 37° C. for 2 hours. The assay signal reagent is the Caspase-Glo solution described above, and 8 μL was added to all wells. The plates were then sealed and measured after 30 minutes.
The activity of a test compound was calculated as percent change in apoptosis induction as follows:
LC=median of the Low Control values • =Central Reference in Screener • =DMSO • =0% ΠC=Median of the High Control values • =Scale Reference in Screener • =30 pM of positive control • =100% apoptosis induction
% Effect (AC50)=100−(sample−LC)/(HC−LC)*100
% Control=(sample/HC)*100
% Control min=(sample−LC)/(HC−LC)*100

[2] = tested on: Molp8 multiple myeloma cell line; experiment: Molp8 multiple myeloma cell line survival assay using Annexin V and 7AAD; format: cell-based, human; details: live cell percent by Annexin V/7AAD flow cytometry, 3 days incubation, each independent run listed individually, read-out: MOLP8 Apoptosis IC50
Source text: Molp8 multiple myeloma cell line survival assay using Annexin V and 7AAD.
The Annexin V/7AAD principle is based on the location of phosphatidylserine in the plasma membrane and the integrity of the membrane barrier. During early apoptosis, phosphatidylserine loses its normal distribution patterns in the inner leaflet of the plasma membrane and appears on the exterior of the plasma membrane. Annexin proteins are calcium dependent phospholipid binding proteins and can bind phosphatidylserine on the outer membrane during cell death. The viability dye 7AAD is excluded from entering cells with intact plasma membranes but accumulates in cells that have lost membrane integrity. Annexin Fitc is excited by the 488 nm laser (max excitation: 490 nm, max emission: 525 nm) as is 7AAD (excitation: 488 nm, emission: 650 nm), which allows this assay to be completed on any multicolor flow cytometer.
The assay conditions were optimized using the following 1× reaction buffer: 5 mM HEPES (4-(2-hydroxyethyl)-1-piperazineethanesulfonic acid), 70 mM NaCl, 1.25 mM CaCl2, pH 7.4.
The Molp 8 cells were multiple myeloma, human, in suspension (*cells were counted 2× per week and culture density maintained between 0.5 and 1.5×10^6 cells per ml).
On Day 1, 5×10^4 live cells per well were plated in a 96-well U-bottom plate, with the cells plated in 100 uL RPMI+10% FBS. An 11-point compound dilution plate was prepared in 3-fold steps (Final concentration range 10 μM-0.1 nM) and added at a concentration of 1 μL per well. The plate was then incubated for 3 days at 37° C. and 5% CO2.
On Day 4, the cells were pelleted and the media discarded. The cells were then resuspended in 50 μL AnnexinV-Fitc (1:40 dilution) and 7AAD (1:100 dilution) in Annexin binding buffer, then incubated for 30 min @ room temperature in the dark. 50 μL binding buffer (100 uL total volume) was then added to the cells. There was no wash step required.
Within 2 hours, PeCy5 (7AAD) and Fitc (Annexin) channels were recorded using BD Canto, collecting a minimum per singlet of 10,000 events.
The activity of a test compound was calculated based on the live cell percentage. • LC=Median of the low control values • =Low control: cells without treatment (no greater than 100% live) • HC=Median of the high control values • =High control: cells treated with 10 uM drug (no less than 0% live)
A best-fit curve was fitted by a minimum sum of squares method to the plot of live cell percent vs. compound concentration. From this an IC50 value (inhibitory concentration causing 50% cytotoxicity) was obtained. An estimate of the slope of the plot in terms of the Hill coefficient was also obtained.

[3] = Homo sapiens, MOLP-8, 6 h, 6 h, read-out: MOLP8 Caspase 3/7 AC50 at 6 h
[4] = Homo sapiens, MOLP-8, 12 h, 12 h, read-out: MOLP8 Caspase 3/7 AC50 at 12 h

Row | Structure (SMILES) | AC50 ([1]; Homo sapiens, MOLP-8, 2 h) [nM] | AC50 [1] [nM] | other results
1 | Cc1c(C(=O)O)n2c3ccc(Cl)c(c13)-c1c(nn(C)c1C)CNCc1cc(n(C)n1)CSc1cc(c3ccccc3c1)OCCC2 [Compound 4, 15-Chloro-13,21,25,61-tetramethyl-11H,21H,61H-10-oxa-8-thia-4-aza-1(4,1)-indola-2(4,3),6(3,5)-dipyrazola-9(3,1)-naphthalenacyclotridecaphane-12-Carboxylic acid] | 920 |  | AC50 (MOLP8 cells; [3]): 1620 nM; AC50 (MOLP8 cells; [4]): 1590 nM; AC50 (MOLP8 cells; Homo sapiens, MOLP-8, 22 h, 22 h, read-out: MOLP8 Caspase 3/7 AC50 at 22 h): 1380 nM
2 | Cc1c(C(=O)O)n2c3ccc(Cl)c(c13)-c1c(nn(C)c1C)CN(C)Cc1cc(n(C)n1)CSc1cc(c3ccccc3c1)OCCC2 [Compound 3, 15-chloro-13,21,25,61,4-pentamethyl-11H,21H,61H-10-oxa-8-thia-4-aza-1(4,1)-indola-2(4,3),6(3,5)-dipyrazola-9(3,1)-naphthalenacyclotridecaphane-12-carboxylic acid] |  |  | AC50 (MOLP8 cells; 6 h, read-out: MOLP8 Caspase 3/7 AC50 at 6 h): 178 nM and 251 nM; AC50 (MOLP8 cells; 12 h, read-out: MOLP8 Caspase 3/7 AC50 at 12 h): 263 nM and 195 nM; AC50 (MOLP8 cells; [3]): 347 nM; AC50 (MOLP8 cells; [4]): 363 nM; IC50 ([2]; Homo sapiens, MOLP-8, 72 h): 200 nM; IC50 [2]: 256 nM
3 | Cc1c(C(=O)O)n2c3ccc(Cl)c(c13)-c1c(nn(C)c1C)CSCc1cc(nn1C(C)C)CSc1cc(c3ccccc3c1)OCCC2 (single isomer, unassigned) [Compound 13] | 1250 |  | 
4 | CCn1nc2cc1CSc1cc(c3ccccc3c1)OCCCn1c(C(=O)O)c(C)c3c(c(Cl)ccc31)-c1c(nn(C)c1C)CSC2 (single isomer, unassigned) [Compound 10] | 120 |  | 
5 | CCn1nc2cc1CSCc1nn(C)c(C)c1-c1c(Cl)ccc3c1c(C)c(C(=O)O)n3CCCOc1cc(cc3ccccc13)SC2 (single isomer, unassigned) [Compound 11] | > 30000 |  | 
6 | Cc1c(C(=O)O)n2c3ccc(Cl)c(c13)-c1c(nn(C)c1C)CSCc1cc([nH]n1)CSc1cc(c3ccccc3c1)OCCC2 (single isomer, unassigned) [Compound 7] | 70 |  | 
7 | Cc1[nH]nc2c1-c1c(Cl)ccc3c1c(C)c(C(=O)O)n3CCCOc1cc(cc3ccccc13)SCc1cc(nn1C)CN(C)C2 (single isomer, unassigned) [Compound 15] |  | 15300 | 
8 | Cc1[nH]nc2c1-c1c(Cl)ccc3c1c(C)c(C(=O)O)n3CCCOc1cc(cc3ccccc13)SCc1cc(nn1C)CSC2 (single isomer, unassigned) [Compound 17] |  | 21300 | 
9 | Cc1[nH]nc2c1-c1c(Cl)ccc3c1c(C)c(C(=O)O)n3CCCOc1cc(cc3ccccc13)SCc1cc(nn1C)CN(C)C2 (single isomer, unassigned) [Compound 14] |  | 920 | 
10 | Cc1c(C(=O)O)n2c3ccc(Cl)c(c13)-c1c(nn(C)c1C)CSCc1cc(n(C(C)C)n1)CSc1cc(c3ccccc3c1)OCCC2 (single isomer, unassigned) [Compound 12] | 510 |  | 
11 | Cc1c(C(=O)O)n2c3ccc(Cl)c(c13)-c1c(nn(C)c1C)CSCc1cc([nH]n1)CSc1cc(c3ccccc3c1)OCCC2 (single isomer, unassigned) [Compound 8] |  | 90 | 
12 | Cc1c(C(=O)O)n2c3ccc(Cl)c(c13)-c1c(nn(C)c1C)CN(C(C)C)Cc1cc(n(C)n1)CSc1cc(c3ccccc3c1)OCCC2 [Compound 9] | 160 |  | 
13 | Cc1c(C(=O)O)n2c3ccc(Cl)c(c13)-c1c(nn(C)c1C)CN(C)Cc1cc(n(C)n1)CSc1cc(c3ccccc3c1)OCCC2 (single isomer, unassigned) [Compound 5] | 14500 |  | 
14 | Cc1[nH]nc2c1-c1c(Cl)ccc3c1c(C)c(C(=O)O)n3CCCOc1cc(cc3ccccc13)SCc1cc(nn1C)CSC2 (single isomer, unassigned) [Compound 16] |  | 540 | 
